Laboratory results as given in patent US12115208B2, “Small-molecule adjuvants for antibiotics to address antibiotic resistance” (HIGH POINT UNIVERSITY, priority 2017, dated 2024).
Where “and” joins values, the source holds several entries; their conditions need not be identical. Identical values can stand only once. Like-named read-outs stand apart in the source and are kept apart here.

Columns and labels:
[1] = tested on: mecA mRNA; type: cell-based, Staphylococcus aureus (MRSA); settings: co-treatment amoxapine and oxacillin vs oxacillin alone
Experimental: (§1) Triplicate cultures of each condition were briefly centrifuged and cell pellets were stored at −80° C. Pellets were resuspended in 100 uL of lyphostaphin (1 mg/mL) and incubated at room temperature for 10 minutes. Next, lysates were subjected to a Qiashredder column and RNA was purified with RNeasy columns according to the manufacturer's protocol (Qiagen). An on-column DNase step was also included. Total RNA was quantified and purity was assessed with a Nanodrop spectrophotometer (Thermo Scientific). RNA integrity was visualized by agarose gel electrophoresis using GelRed (Phenix) and a ChemiDoc MP (BioRad).
(§2) 200 ng of total RNA was reverse transcribed using random primers, according to the manufacturer's protocol (BioRad select cDNA synthesis kit). Minus reverse transcriptase controls were prepared for each sample. […] Specificity of each primer pair was assessed with melt curve analyses and agarose gel electrophoresis. The efficiency of each primer pair was calculated using results from calibration curves generated in Microsoft Excel. Contaminating genomic DNA levels were calculated using the comparative Ct method. Gene expression levels relative to 16S rRNA were calculated using a relative quantification model.^17 Statistical significance was determined by unpaired student's t tests. […]

[2] = tested on: mecI mRNA; type: cell-based, Staphylococcus aureus (MRSA); settings: co-treatment amoxapine and oxacillin vs oxacillin alone
Experimental: as §1, §2

[3] = tested on: S. aureus ATCC 29213; assay: Antibiotic repotentiation (antibiotic MIC with/without compound); type: cell-based, Staphylococcus aureus; settings: for Oxacillin MIC: ATCC 29213
Experimental: (§3) The overnight culture was diluted into fresh CAMHB to a concentration of 5×10^5 CFU/ml. […] On the same plate, a standard microdilution MIC with the tested antibiotics and no added compound was also performed to compare the antibiotic MIC in the presence and absence of compound. […] Fold reductions were calculated by dividing the MIC of the antibiotic without compound by the MIC of the antibiotic in the presence of compound.
(§4) The compounds were then analyzed for antibiotic repotentiation activity. […] The tested strains included USA300, which is a common and particularly virulent strain of community-acquired MRSA.

[4] = tested on: S. aureus USA300 (MRSA); assay: as above; type: cell-based, Staphylococcus aureus; settings: for MIC of antibiotic: MRSA USA300
Experimental: as §3, §4

[5] = tested on: pbp2 mRNA; assay: RT-qPCR mRNA levels; type: cell-based, Staphylococcus aureus (MRSA); settings: co-treatment amoxapine and oxacillin vs oxacillin alone
Experimental: as §1, §2

[6] = tested on: S. aureus ATCC 29213; assay: Minimum inhibitory concentration, broth microdilution; type: cell-based; settings: Staphylococcus aureus, ATCC29213; compound alone; S. aureus ATCC 29213; CAMHB, 18 h; read-out: MIC
Experimental: as §4

[7] = tested on: S. aureus USA300 (MRSA); assay: as above; type: cell-based, Staphylococcus aureus; settings: Staphylococcus aureus; compound alone; S. aureus USA300 (MRSA); CAMHB, 18 h; read-out: MIC
Experimental: as §4

[8] = tested on: S. aureus ATCC 43300 (MRSA); assay: as above; type: cell-based, Staphylococcus aureus; settings: Staphylococcus aureus; compound alone; S. aureus ATCC 43300 (MRSA); CAMHB, 18 h; read-out: MIC
Experimental: as §4

[9] = molecular target: β-lactamase, MSSA ATCC 29213 (Staphylococcus aureus, UniProt P00807); settings: MSSA 29213
Chain of β-lactamase, MSSA ATCC 29213 (P00807 25-281): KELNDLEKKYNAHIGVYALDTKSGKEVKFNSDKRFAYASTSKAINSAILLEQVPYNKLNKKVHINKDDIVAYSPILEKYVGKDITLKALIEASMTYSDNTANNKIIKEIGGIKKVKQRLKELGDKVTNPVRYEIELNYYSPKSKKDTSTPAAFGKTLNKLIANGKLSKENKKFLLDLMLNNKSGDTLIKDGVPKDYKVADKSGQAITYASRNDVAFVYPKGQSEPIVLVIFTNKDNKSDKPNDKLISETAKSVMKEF
Experimental: For whole cell nitrocefin assays, bacteria was cultured overnight in CAMHB at 37° C. with shaking. The overnight culture was subcultured 1:100 in fresh CAMHB and grown at 37° C. with shaking to mid-log phase (OD600=0.4-0.6). The culture was adjusted to an OD600 of 0.2 in fresh CAMHB. […] These suspensions were incubated at 37° C. with shaking for thirty minutes. The suspensions were adjusted to an OD600 of 0.132 in phosphate buffered saline (PBS, pH 7, 900 μl). A 100 μl of a stock solution of nitrocefin (500 mg/ml in PBS) was added to these suspensions and mixed. The nitrocefin-bacteria suspensions (100 μl) were added to the wells of a clear 96-well polystyrene microtiter plate. A 50 mg/ml solution of nitrocefin in PBS served as a blank. Using BioTek Synergy H1 microplate reader maintained at 37° C., the absorbance at 486 nm was recorded every 5 minutes for 2 hours.
The known β-lactamase inhibitor sulbactam was used as a positive control. Again, all assays were run in triplicate and each data point represents the average of three data points.

[10] = tested on: S. epidermidis 49461; assay: Antibiotic repotentiation (oxacillin MIC with/without compound); type: cell-based, Staphylococcus epidermidis
Experimental: as §3
Antibiotic potentiation in S. epidermidis was also investigated.

[11] = tested on: blaI mRNA; assay: RT-qPCR mRNA levels; type: cell-based, Staphylococcus aureus (MRSA)
Experimental: as §1
(§5) 200 ng of total RNA was reverse transcribed using random primers, according to the manufacturer's protocol (BioRad select cDNA synthesis kit). Minus reverse transcriptase controls were prepared for each sample. Next, duplicate qPCR reactions were performed for each cDNA template using SYBR green according to the manufacturer's protocol (BioRad SYBR Green Supermix). Primer sequences are found in Supporting Information. Those that the authors designed used NCBI Primer Blast to specify the annealing temperatures, length, location, and analyze specificity and secondary structure. All reactions were run on a StepOne thermal cycler (Applied Biosystems). Cycling parameters were as follows: 95° C. for 10 minutes, 40 cycles of 95° C. for 15 seconds followed by 60° C. for 1 minute. Specificity of each primer pair was assessed with melt curve analyses and agarose gel electrophoresis. The efficiency of each primer pair was calculated using results from calibration curves generated in Microsoft Excel. Contaminating genomic DNA levels were calculated using the comparative Ct method. Gene expression levels relative to 16S rRNA were calculated using a relative quantification model.^17 Statistical significance was determined by unpaired student's t tests. All calculations were performed using Microsoft Excel.
(§6) See Blazquez, B. et al., “Regulation of the expression of the beta-lactam antibiotic-resistance determinants in methicillin-resistant Staphylococcus aureus (MRSA),” Biochemistry 2014, 53 (10), 1548; Staude, M. W. et al., “Investigation of signal transduction routes within the sensor/transducer protein BlaR1 of Staphylococcus aureus,” Biochemistry 2015, 54 (8), 1600; Thumanu, K., et al., “Discrete steps in sensing of beta-lactam antibiotics by the BlaR1 protein of the methicillin-resistant Staphylococcus aureus bacterium,” Proc Natl Acad Sci USA 2006, 103 (28), 10630, which are incorporated herein by reference in their entireties.

[12] = tested on: blaZ mRNA; assay: RT-qPCR mRNA levels; type: cell-based, Staphylococcus aureus (MRSA)
Experimental: as §1, §5, §6

[13] = tested on: MRSA; assay: Growth curves; type: cell-based, Staphylococcus aureus; settings: MRSA in CAMHB; for effect on cell density (OD 600 nm) after 24 hours: single treatment: oxacillin 1 μg/mL alone or amoxapine 150 μM alone
Experimental: The overnight culture was diluted into fresh CAMHB to a concentration of 5×10^5 CFU/ml. The cell suspension (3 mL) was aliquoted into sterile culture tubes and compound was added to achieve the desired concentrations. An untreated aliquot served as the control. 200 μl of each suspension or of the untreated control was aliquoted into a flat-bottomed microtiter plate. The plate was maintained at 37° C. with shaking and absorbance readings (600 nm) were recorded every 30 minutes for 24 hours.
MRSA was grown in cation-adjusted Mueller-Hinton broth (CAMHB). […] The optical density of the cultures at 600 nm was measured every 2 hours for 8 hours and again at 24 hours.

[14] = tested on: S. aureus 43300 (MRSA); assay: Antibiotic repotentiation (antibiotic MIC with/without compound); type: cell-based, Staphylococcus aureus
Experimental: as §3, §4

[15] = tested on: S. aureus NR-49120 (VRSA); assay: as above; type: cell-based, Staphylococcus aureus; settings: VRSA NR-49120
Experimental: as §3

[16] = tested on: S. aureus USA100 (MRSA); assay: as above; type: cell-based, Staphylococcus aureus; settings: for MIC of antibiotic: MRSA USA100
Experimental: as §3

[17] = treatment alone, compared to untreated cells
[18] = co-treatment amoxapine and oxacillin vs oxacillin alone
[19] = oxacillin treatment, relative to 16S rRNA

Clc1ccc2c(c1)C(N1CCNCC1)=Nc1ccccc1O2 [Amoxapine, 2-chloro-11-(1-piperazinyl)dibenz[b,f][1,4]oxazepine]
reduction in mecA mRNA levels [1]: 4.5 fold | reduction in mecI mRNA levels [2]: 3.0 fold | Oxacillin MIC ([3]; +75 μM compound): 0.25 µg/mL | Oxacillin MIC ([3]; +150 μM compound): 0.125 µg/mL | Oxacillin MIC ([4]; +75 μM compound, USA300 (MRSA)): 16 µg/mL | Oxacillin MIC ([4]; +150 μM compound, USA300 (MRSA)): 2 µg/mL | effect on mRNA levels of pbp2 [5]: no significant effect | MIC [6]: 600 µM | MIC [7]: 600 µM | MIC [8]: 600 µM | effect on β-lactamase activity (nitrocefin hydrolysis) ([9]; oxacillin in combination with amoxapine): little effect | effect on β-lactamase activity (nitrocefin hydrolysis) [9, 17]: no effect | Oxacillin MIC ([10]; +75 μM compound, S. epidermidis 49461): 4 µg/mL | reduction in blaI levels [11, 18]: 2.2 fold | effect on mRNA levels ([12]; amoxapine alone vs untreated control (data not shown)): no significant effect | reduction in blaZ levels [12, 18]: 3.0 fold | effect on cell density (OD 600 nm) throughout the experiment ([13]; combination of oxacillin (1 μg/mL) and amoxapine (150 μM), 24 h): potent inhibition of cell density | effect on cell density (OD 600 nm) after 24 hours [13]: negligible effect

Cc1onc(-c2ccccc2)c1C(=O)N[C@@H]1C(=O)N2[C@@H]1SC(C)(C)[C@@H]2C(=O)O [Oxacillin]
MIC ([3]; Staphylococcus aureus, ATCC29213, read-out: Oxacillin MIC): 0.25 µg/mL | MIC of antibiotic ([4]; +Loratadine 25 μM): 2 µg/mL | MIC of antibiotic ([4]; +Loratadine 50 μM): 0.5 µg/mL | MIC ([4]; Staphylococcus aureus, read-out: Oxacillin MIC, oxacillin alone, S. aureus USA300 (MRSA)): 32 µg/mL | MIC of antibiotic ([4]; antibiotic alone): 32 µg/mL | Oxacillin MIC ([4]; oxacillin alone, S. aureus USA300 (MRSA)): 64 µg/mL | MIC of antibiotic ([14]; +Amoxapine (150 μM), S. aureus 43300 (MRSA)): 2 µg/mL | MIC of antibiotic ([14]; +Loratadine 25 μM, MRSA 43300): 4 µg/mL | MIC of antibiotic ([14]; +Loratadine 50 μM, MRSA 43300): 1 µg/mL | MIC of antibiotic ([14]; antibiotic alone, no compound, S. aureus 43300 (MRSA)): 32 µg/mL and 16 µg/mL | MIC of antibiotic ([14]; antibiotic alone, S. aureus ATCC 43300 (MRSA)): 32 µg/mL | MIC of antibiotic ([15]; +Loratadine 25 μM): 64 µg/mL | MIC of antibiotic ([15]; +Loratadine 50 μM): 16 µg/mL | MIC of antibiotic ([16]; +Loratadine 50 μM): 0.25 µg/mL | MIC ([16]; Staphylococcus aureus, read-out: Oxacillin MIC): 512 µg/mL | MIC of antibiotic ([16]; antibiotic alone): 256 µg/mL | effect on β-lactamase activity (nitrocefin hydrolysis) [9, 17]: little effect | MIC ([10]; Staphylococcus epidermidis, 49461, 18 h, read-out: Oxacillin MIC): 16 µg/mL | increase in blaI levels [11, 19]: 13 fold | increase in blaZ mRNA [12, 19]: 38 fold | effect on cell density (OD 600 nm) after 24 hours [13]: negligible effect
